“And” between values parts separate entries of the source, which are not always exact repeats. Equal values may be shown once.
Conditions: Liquid

CC(C)CCCC(C)CCCC(C)CCCCC(C)CCCC(C)CCCC(C)C (configuration not stated) [2,6,10,15,19,23-hexamethyltetracosane]
viscosity
Conditions	Falling or rolling sphere viscometry	quartz resonator viscometer
293.15 K, 10220 kPa	–	45.8 mPa·s and 46.2 mPa·s
293.15 K, 20250 kPa	–	57.9 mPa·s and 58.5 mPa·s
293.15 K, 30090 kPa	–	70.8 mPa·s and 71.5 mPa·s
293.15 K, 40100 kPa	–	87 mPa·s and 87.9 mPa·s
293.15 K, 50070 kPa	–	108.1 mPa·s and 109.2 mPa·s
293.15 K, 60060 kPa	–	130 mPa·s and 131.3 mPa·s
293.15 K, 71000 kPa	–	160.4 mPa·s and 162.1 mPa·s
293.15 K, 80600 kPa	–	180.6 mPa·s and 182.4 mPa·s
303.15 K, 11300 kPa	–	28.6 mPa·s and 28.5 mPa·s
303.15 K, 19900 kPa	–	34.1 mPa·s and 34 mPa·s
303.15 K, 20000 kPa	34.78 mPa·s	–
303.15 K, 31400 kPa	–	43.9 mPa·s and 43.8 mPa·s
303.15 K, 40000 kPa	51.64 mPa·s	–
303.15 K, 40600 kPa	–	53 mPa·s and 52.9 mPa·s
303.15 K, 50900 kPa	–	64.7 mPa·s and 64.6 mPa·s
303.15 K, 60000 kPa	74.96 mPa·s	78.3 mPa·s and 78.1 mPa·s
303.15 K, 71700 kPa	–	94.7 mPa·s and 94.5 mPa·s
303.15 K, 80000 kPa	107.09 mPa·s	107.8 mPa·s and 107.5 mPa·s
303.15 K, 100000 kPa	146.47 mPa·s	–
303.15 K, 120000 kPa	210.53 mPa·s	–
303.15 K, 140000 kPa	305.4 mPa·s	–
303.15 K, 160000 kPa	422.48 mPa·s	–
313.15 K, 10000 kPa	16.8 mPa·s	–
313.15 K, 10110 kPa	–	18.2 mPa·s and 18.3 mPa·s
313.15 K, 15000 kPa	18.9 mPa·s	–
313.15 K, 20170 kPa	–	22.4 mPa·s and 22.6 mPa·s
313.15 K, 25000 kPa	23.8 mPa·s	–
313.15 K, 29620 kPa	–	26.6 mPa·s and 26.9 mPa·s
313.15 K, 40550 kPa	–	32.5 mPa·s and 32.8 mPa·s
313.15 K, 49650 kPa	–	38.5 mPa·s and 38.8 mPa·s
313.15 K, 50000 kPa	39.2 mPa·s and 36.3 mPa·s	–
313.15 K, 60500 kPa	–	47 mPa·s and 47.4 mPa·s
313.15 K, 70400 kPa	–	55.9 mPa·s and 56.4 mPa·s
313.15 K, 75000 kPa	61.2 mPa·s and 59.6 mPa·s	–
313.15 K, 80670 kPa	–	66.4 mPa·s and 66.9 mPa·s
313.15 K, 100000 kPa	92.3 mPa·s and 91.3 mPa·s	–
313.15 K, 125000 kPa	136.4 mPa·s and 134.8 mPa·s	–
313.15 K, 150000 kPa	199 mPa·s and 194.1 mPa·s	–
313.15 K, 175000 kPa	275.3 mPa·s	–
313.15 K, 200000 kPa	386.2 mPa·s	–
313.15 K, 225000 kPa	537.7 mPa·s	–
313.15 K, 250000 kPa	744.7 mPa·s	–
323.15 K, 10250 kPa	–	12.8 mPa·s and 12.7 mPa·s
323.15 K, 20000 kPa	15.77 mPa·s	–
323.15 K, 20340 kPa	–	15.5 mPa·s
323.15 K, 30170 kPa	–	18.4 mPa·s
323.15 K, 40000 kPa	22.36 mPa·s	–
323.15 K, 40160 kPa	–	21.8 mPa·s
323.15 K, 50130 kPa	–	25.8 mPa·s
323.15 K, 60000 kPa	31.17 mPa·s	–
323.15 K, 60110 kPa	–	30.8 mPa·s and 30.8 mPa·s
323.15 K, 70120 kPa	–	36.2 mPa·s
323.15 K, 80000 kPa	42.71 mPa·s	–
323.15 K, 80060 kPa	–	43 mPa·s
323.15 K, 100000 kPa	57.75 mPa·s	–
323.15 K, 120000 kPa	77.38 mPa·s	–
323.15 K, 140000 kPa	102.35 mPa·s	–
323.15 K, 160000 kPa	135.1 mPa·s	–
323.15 K, 180000 kPa	175.94 mPa·s	–
323.15 K, 200000 kPa	228.18 mPa·s	–

Reference: the NIST ThermoML archive (doi:10.1016/j.jct.2013.10.001)
